40 compounds from patent US20170275302A1, “INHIBITORS OF THE RENAL OUTER MEDULLARY POTASSIUM CHANNEL” (Merck Sharp & Dohme Corp., priority 2014, published 2017) can be followed below.

The target in this assay is T1, hROMK (hKir1.1) (Homo sapiens, UniProt P48048).
T1 construct: expressed in transfected cells
T1 sequence (P48048 1-391): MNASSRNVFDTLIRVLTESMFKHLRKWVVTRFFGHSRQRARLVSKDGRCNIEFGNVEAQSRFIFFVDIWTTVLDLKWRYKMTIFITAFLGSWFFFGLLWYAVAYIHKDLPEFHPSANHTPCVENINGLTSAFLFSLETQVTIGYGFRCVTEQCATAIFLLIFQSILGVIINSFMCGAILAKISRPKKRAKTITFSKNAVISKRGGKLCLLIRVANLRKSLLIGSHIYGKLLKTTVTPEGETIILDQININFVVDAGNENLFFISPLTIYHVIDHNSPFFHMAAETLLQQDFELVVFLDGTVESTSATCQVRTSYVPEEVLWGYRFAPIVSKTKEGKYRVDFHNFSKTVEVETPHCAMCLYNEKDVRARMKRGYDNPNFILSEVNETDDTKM
In words: Thallium Flux Assay (ROMK channel functional thallium flux assay, FLIPR-Tetra). Type of assay: cell-based. The conditions noted are these: HEK293 cells stably expressing hROMK (hKir1.1); FluxOR thallium flux, 30 min compound incubation; concentration inhibiting 50% of ROMK thallium flux signal. The procedure: The following Thallium Flux Assay was performed on each of the final product compounds in the Examples.
HEK293 cells stably expressing hROMK (hKir1.1) were grown at 37° C. in a 10% CO2 humidified incubator in complete growth media: Dulbecco's Modified Eagle Medium supplemented with non-essential amino acids, Penicillin/Streptomycin/Glutamine, G418 and FBS. At >80% confluency, the media was aspirated from the flask and rinsed with 10 mL calcium/magnesium-free phosphate buffered saline (PBS). 5 mL of 1× trypsin (prepared in Ca/Mg Free PBS) was added to T-225 flask and the flask was returned to 37° C./CO2 incubator for 2-3 minutes. To dislodge the cells, the side of the flask was gently banged with one's hand. The cells were completely titrated and then the cells were transferred to 25 mL complete media, centrifuged at 1,500 rpm for 6 min followed by resuspension in complete growth media, and the cell concentration was determined. For typical re-seeding, 4E6 cells/T-225 flask will attain >80% confluency in 4 days. Under ideal growth conditions and appropriate tissue culture practices, this cell line is stable for 40-45 passages.
Compound Buffer (per microplate): 20 mL Probenecid/Assay Buffer; 0.3 mM ouabain (10 mM ouabain in water can be stored in amber bottle/aluminum foil at room temperature); Test compound
Stimulant Buffer (prepared at 5× final concentration in 1× FluxOR™Chloride-Free Buffer): 7.5 mM thallium sulfate and 0.75 mM potassium sulfate (to give a final assay concentration of 3 mM Thallium/0.3 mM potassium). Store at 4° C. when not in use. If kept sterile, this solution is good for months.
The ROMK channel functional thallium flux assay was performed in 384 wells, using the FLIPR-Tetra instrument. HEK-hKir1.1 cells were seeded in Poly-D-Lysine microplates and kept in a 37° C.-10% CO2 incubator overnight. On the day of the experiment, the growth media was replaced with the FluxOR™ reagent loading buffer and incubated, protected from light, at ambient temperature (23-25° C.) for 90 min. The loading buffer was replaced with assay buffer±test compound followed by 30 min incubation at ambient temperature, where the thallium/potassium stimulant was added to the microplate.
• 1. Seed HEK-hKir1.1 cells (50 μl at 20,000 cells/well) in 384-well PDL coated Microplates • 2. Allow cells to adhere overnight in humidified 37° C./10% CO2 incubator • 3. Completely remove cell growth media from microplate and replace with 25 μl loading buffer • 4. Incubate Microplate at room temperature, protected form light, for 90 min • 5. Remove loading buffer and replace with 25 μl 1× Assay Buffer±test compound. • 6. Incubate microplate at room temperature, protected from light, for 30 min • 7. At FLIPR-Tetra 384: Add stimulant (thallium/potassium) solution to microplate and monitor fluorescence. Excitation=400 nm, Emission=460 & 580 nm. Collect data for ˜10 min.
The fluorescence intensity of wells containing 3 μM of a standard control ROMK inhibitor of the present invention was used to define the ROMK-sensitive component of thallium flux. Fluorescence in the presence of test compounds was normalized to control values to provide % fluorescence change. IC50 values represent the concentration of compound that inhibited 50% of the ROMK thallium flux signal.

`COc1cc2ccc(N3CCC4(CCN(C[C@H](O)c5ccc6c(c5C)COC6=O)CC4)C3=O)nc2cn1` [Example 33]: the half-maximal inhibitory concentration (IC50) (as a rule, the concentration that inhibits the measured activity by half) is 284 nM.
`Cc1c([C@@H](O)CN2CCC3(CC2)CCN(c2ccc4sccc4n2)C3=O)ccc2c1COC2=O` [Example 34] yielded an IC50 of 427 nM.
Then `Cc1c([C@@H](O)CN2CCC3(CC2)CCN(c2ccc4ncnn4c2)C3=O)ccc2c1COC2=O` [Example 35], with 537 nM.
Then `Cc1c([C@@H](O)CN2CCC3(CC2)CCN(c2cc4cncnc4s2)C3=O)ccc2c1COC2=O` [Example 36], with 190 nM.
The compound `Cc1c([C@@H](O)CN2CCC3(CC2)CCN(c2cc4cnccc4s2)C3=O)ccc2c1COC2=O` [Example 37] returned an IC50 of 117 nM.
Then `Cc1c([C@@H](O)CN2CCC3(CC2)CCN(c2ccnc4c2OCO4)C3=O)ccc2c1COC2=O` [Example 38, (R)-2-([1,3]dioxolo[4,5-b]pyridin-7-yl)-8-(2-hydroxy-2-(4-methyl-1-oxo-1,3-dihydroisobenzofuran-5-yl)ethyl)-2,8-diazaspiro[4.5]decan-1-one], with 54.9 nM; and `Cc1c([C@@H](O)CN2CCC3(CC2)CC(=O)N(c2cn4ncnc4cn2)C3)ccc2c1COC2=O` [Example 39, (R)-2-([1,2,4]triazolo[1,5-a]pyrazin-6-yl)-8-(2-hydroxy-2-(4-methyl-1-oxo-1,3-dihydroisobenzofuran-5-yl)ethyl)-2,8-diazaspiro[4.5]decan-3-one], with 458 nM; and `Cc1c([C@@H](O)CN2CCC3(CC2)CC(=O)N(c2ccc4nc(C(F)(F)F)nn4c2)C3)ccc2c1COC2=O` [Example 40], with 894 nM.
Then `Cc1c([C@@H](O)CN2CCC3(CC2)CC(=O)N(c2cnn4ncccc24)C3)ccc2c1COC2=O` [Example 41], with 336 nM; and `N#Cc1ccc(C(O)CN2CCC3(CC2)CCN(c2ccc4nncn4n2)C3)nc1` (stereo not shown) [Example 42], with 117 nM.
Then `N#Cc1ccc(C(O)CN2CCC3(CC2)CCN(c2ccc4nncn4n2)C3)nc1` (stereo not shown) [Example 43], with 361 nM.
`COc1cc([C@H](O)CN2CCC3(CC2)CCN(c2ccc4nncn4n2)C3)ncc1C#N` [Example 44] displayed a 50% inhibitory concentration (IC50) of 124 nM.
Then `COc1cc([C@@H](O)CN2CCC3(CC2)CCN(c2ccc4nncn4n2)C3)ncc1C#N` [Example 45, 6-(2-(2-([1,2,4]triazolo[4,3-b]pyridazin-6-yl)-2,8-diazaspiro[4.5]decan-8-yl)-1-hydroxyethyl)-4-methoxynicotinonitrile], with 45.9 nM; and `Cc1nc(C(O)CN2CCC3(CC2)CCN(c2ccc4nncn4n2)C3)ccc1C#N` (stereo not shown) [Example 46, 6-(2-(2-([1,2,4]triazolo[4,3-b]pyridazin-6-yl)-2,8-diazaspiro[4.5]decan-8-yl)-1-hydroxyethyl)-2-methylnicotinonitrile], with 77 nM; and `Cc1nc(C(O)CN2CCC3(CC2)CCN(c2ccc4nncn4n2)C3)ccc1C#N` (stereo not shown) [Example 47], with 147 nM.
Regarding `Cc1cc(C#N)cnc1C(O)CN1CCC2(CC1)CCN(c1ccc3nncn3n1)C2` (stereo not shown) [Example 48], the IC50 came to 88.1 nM.
Then `Cc1cc(C#N)cnc1C(O)CN1CCC2(CC1)CCN(c1ccc3nncn3n1)C2` (stereo not shown) [Example 49], with 208 nM; and `COc1cc(C(O)CN2CCC3(CC2)CCN(c2ccc4nncn4n2)C3)ccc1C#N` (stereo not shown) [Example 50], with 41.5 nM.
Then `COc1cc(C(O)CN2CCC3(CC2)CCN(c2ccc4nncn4n2)C3)ccc1C#N` (stereo not shown) [Example 51], with 48.7 nM; and `COc1cc(C(O)CN2CCC3(CC2)CCN(c2ccc4nncn4n2)C3)c(Cl)cc1C#N` (stereo not shown) [Example 56], with 27.6 nM.
Then `Cc1nc(C(O)CN2CCC3(CC2)CC(=O)N(c2ccc4nncn4n2)C3)ccc1C#N` (stereo not shown) [Example 57], with 248 nM; and `COc1cc(C(O)CN2CCC3(CC2)CC(=O)N(c2ccc4nncn4n2)C3)ccc1C#N` (stereo not shown) [Example 58], with 413 nM.
As for `N#Cc1ccc(C(O)CN2CCC3(CC2)CC(=O)N(c2ccc4nncn4n2)C3)nc1` (stereo not shown) [Example 59], half-maximal inhibition (IC50) required 412 nM.
Then `COc1cc([C@H](O)CN2CCC3(CC2)CC(=O)N(c2ccc4nncn4n2)C3)ncc1C#N` [Example 60], with 780 nM; and `COc1cc([C@@H](O)CN2CCC3(CC2)CC(=O)N(c2ccc4nncn4n2)C3)ncc1C#N` [Example 61], with 228 nM; and `N#Cc1ccc(C(O)CN2CCC3(CCN(c4ccc5nncn5n4)CC3)C2)nc1` (stereo not shown) [Example 62], with 129 nM.
The compound `N#Cc1ccc(C(O)CN2CCC3(CCN(c4ccc5nncn5n4)CC3)C2)nc1` (stereo not shown) [Example 63] returned an IC50 of 154 nM.
In the case of `COc1cc([C@H](O)CN2CCC3(CCN(c4ccc5nncn5n4)CC3)C2)ncc1C#N` [Example 64], the IC50 was 91.8 nM.
`Cc1cc(C#N)cnc1C(O)CN1CCC2(CCN(c3ccc4nncn4n3)CC2)C1` (stereo not shown) [Example 65, 6-(2-(8-([1,2,4]triazolo[4,3-b]pyridazin-6-yl)-2,8-diazaspiro[4.5]decan-2-yl)-1-hydroxyethyl)-5-methylnicotinonitrile] came in with a 50% inhibitory concentration (IC50) of 34.7 nM.
In turn, `Cc1cc(C#N)cnc1C(O)CN1CCC2(CCN(c3ccc4nncn4n3)CC2)C1` (stereo not shown) [Example 66] registered an IC50 of 72.8 nM.
Then `Cc1nc(C(O)CN2CCC3(CCN(c4ccc5nncn5n4)CC3)C2)ccc1C#N` (stereo not shown) [Example 67, 6-(2-(8-([1,2,4]triazolo[4,3-b]pyridazin-6-yl)-2,8-diazaspiro[4.5]decan-2-yl)-1-hydroxyethyl)-2-methylnicotinonitrile], with 64.2 nM; and `Cc1nc(C(O)CN2CCC3(CCN(c4ccc5nncn5n4)CC3)C2)ccc1C#N` (stereo not shown) [Example 68], with 85.9 nM; and `Cc1c([C@@H](O)CN2CCC3(CCN(c4ccc5nncn5n4)CC3)C2)ccc2c1COC2=O` [Example 70, (R)-5-(2-(8-([1,2,4]triazolo[4,3-b]pyridazin-6-yl)-2,8-diazaspiro[4.5]decan-2-yl)-1-hydroxyethyl)-4-methylisobenzofuran-1(3H)-one], with 31 nM.
Then `COc1cc([C@@H](O)CN2CCC3(CC2)CCN(c2ccc4nnnn4n2)C3)ncc1C#N` [Example 71, (S)-6-(1-hydroxy-2-(2-(tetrazolo[1,5-b]pyridazin-6-yl)-2,8-diazaspiro[4.5]decan-8-yl)ethyl)-4-methoxynicotinonitrile], with 208 nM.
Then `COc1cc([C@@H](O)CN2CCC3(CC2)CCN(c2nn4cnnc4s2)C3)ncc1C#N` [Example 72], with 250 nM; and `COc1cc([C@@H](O)CN2CCC3(CC2)CCN(c2ccc4nncn4c2)C3)ncc1C#N` [Example 73], with 221 nM.
For `Cc1c([C@@H](O)CN2CCC3(CC2)CCN(c2ccc4nncn4n2)C3=O)ccc2c1COC2=O` [Example 74], half-maximal inhibition (IC50) required 116 nM.
Then `COc1cc([C@@H](O)CN2CCC3(CC2)CCN(c2ccc4nncn4n2)C3=O)ncc1C#N` [Example 75], with 608 nM; and `Cc1c([C@@H](O)CN2CCC3(CCCN(c4ccc5nncn5n4)C3)CC2)ccc2c1COC2=O` [Example 76], with 97.6 nM.
Then `COc1cc([C@H](O)CN2CCC3(CC2)CCN(c2ccc4c(c2C)COC4=O)C3)ncc1C#N` [Example 77, (R)-6-(1-hydroxy-2-(2-(4-methyl-1-oxo-1,3-dihydroisobenzofuran-5-yl)-2,8-diazaspiro[4.5]decan-8-yl)ethyl)-4-methoxynicotinonitrile], with 66.4 nM.
